Data from PubChem BioAssay (NCI).
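Growth conditions: 96-well plates. Treatment: test compound, 48 hours, 5 concentrations. Analysis: linear interpolation between bracketing concentrations; unreached endpoints set to highest concentration. GI50 = concentration required for 50% inhibition of growth. TGI is the concentration that stops growth completely.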

Tests used:
Experiment in all cases: NCI tumour cell line growth inhibition, 48 h
[1] = test system: SW-620 colon
[2] = test system: SN12C renal
[3] = test system: HT29 colon
[4] = test system: A549 NSCLC
[5] = test system: SNB-75 CNS
[6] = test system: UACC-257 melanoma
[7] = test system: HCT-15 colon
[8] = test system: SNB-19 CNS
[9] = test system: LOX IMVI melanoma
[10] = test system: SK-OV-3 ovarian

SMILES: O=[N+]([O-])c1c(Br)cc(Br)c2c1Nc1c(ccc(Cl)c1Cl)S2
- TGI [1]: 25.7 µM
- TGI [2]: 27.9 µM
- TGI [3]: 26 µM
- TGI [4]: 39.5 µM
- TGI [5]: > 72 µM
- TGI [6]: 21.2 µM
- TGI [7]: 39.7 µM
- TGI [8]: 35.1 µM
- TGI [9]: 8.78 µM
- TGI [10]: 43 µM

SMILES: Oc1ccc(C(c2ccc(O)cc2)c2ccc(Cl)cn2)cc1
- GI50 [1]: 60.7 µM
- TGI [1]: > 100 µM
- GI50 [2]: 0.0408 µM
- TGI [2]: 0.331 µM
- GI50 [3]: 4.97 µM
- TGI [3]: > 100 µM
- GI50 [4]: 1.21 µM
- TGI [4]: > 100 µM
- GI50 [5]: 0.17 µM
- TGI [5]: 0.451 µM
- GI50 [6]: 23.1 µM
- TGI [6]: > 100 µM
- GI50 [7]: 0.337 µM
- TGI [7]: 56.1 µM
- GI50 [8]: 19.1 µM
- TGI [8]: > 100 µM
- GI50 [9]: 0.295 µM
- TGI [9]: > 100 µM
- GI50 [10]: 18.6 µM
- TGI [10]: > 100 µM

SMILES: CC1OC(OCC2OC(Oc3c(-c4ccc(O)cc4)oc4cc(O)cc(O)c4c3=O)C(OC3OC(C)C(O)C(O)C3O)C(O)C2O)C(O)C(O)C1O (configuration not stated)
- TGI [1]: > 62.4 µM
- TGI [2]: > 100 µM
- TGI [3]: > 100 µM
- TGI [4]: > 100 µM
- TGI [5]: > 100 µM
- TGI [6]: > 100 µM
- TGI [7]: > 56.8 µM
- TGI [8]: > 100 µM
- TGI [9]: > 100 µM
- TGI [10]: > 100 µM

SMILES: CC1CCP(=O)(c2ccccc2)c2ccccc21 (configuration not stated)
- TGI [2]: 85.6 µM
- TGI [3]: > 100 µM
- TGI [4]: > 100 µM
- TGI [5]: > 100 µM
- TGI [6]: > 100 µM
- TGI [7]: > 100 µM
- TGI [8]: > 100 µM
- TGI [9]: 58 µM
- TGI [10]: > 100 µM

SMILES: COc1cc(/C=C\c2ccc(C)cc2)cc(OC)c1OC
- TGI [1]: > 100 µM
- TGI [2]: > 69 µM
- TGI [4]: > 100 µM
- GI50 [5]: 0.0149 µM
- GI50 [6]: < 0.021 µM
- TGI [6]: > 76.6 µM
- TGI [9]: 38.7 µM

SMILES: COc1cc(/C=C\c2ccccc2)cc(OC)c1OC
- TGI [1]: > 100 µM
- TGI [2]: 48.6 µM
- TGI [3]: 14.1 µM
- TGI [4]: > 80.3 µM
- TGI [5]: 6.9 µM
- TGI [6]: 41.3 µM
- TGI [7]: 36 µM
- TGI [8]: > 77.5 µM
- TGI [9]: > 100 µM

SMILES: CC(=O)N[C@@H]1C(O)CN2C(=O)C(=O)O[C@H](C(O)CO)[C@@H]12 (some centres not stated)
- TGI [1]: > 100 µM
- TGI [3]: > 100 µM
- TGI [4]: > 100 µM
- TGI [5]: > 100 µM
- TGI [6]: > 100 µM
- TGI [8]: > 100 µM
- TGI [9]: > 100 µM
- TGI [10]: > 100 µM

SMILES: Cn1nc(-c2ccccc2)c(C(=O)/C=C/c2ccc(F)cc2)c(N2CCCCC2)c1=O
- TGI [1]: 45.3 µM
- TGI [2]: > 100 µM
- TGI [3]: 20.2 µM
- TGI [4]: 55.1 µM
- TGI [7]: > 100 µM
- TGI [8]: 55.4 µM
- TGI [9]: 15.4 µM
- TGI [10]: 70.1 µM

SMILES: O=C(/C(=C\C(=O)c1cccs1)c1ccsc1)c1ccc(Br)cc1
- TGI [1]: > 100 µM
- TGI [2]: > 100 µM
- TGI [3]: > 100 µM
- TGI [4]: > 100 µM
- TGI [5]: > 100 µM
- TGI [6]: > 100 µM
- TGI [7]: > 100 µM
- TGI [8]: > 100 µM
- TGI [10]: > 100 µM

SMILES: COc1cc(CCN)c2c(c1OC)SSSSS2
- GI50 [1]: 0.101 µM
- TGI [1]: 0.283 µM
- GI50 [2]: 1.13 µM
- TGI [2]: 2.38 µM
- GI50 [3]: 0.34 µM
- TGI [3]: 1.39 µM
- GI50 [4]: 1.38 µM
- TGI [4]: 2.71 µM
- GI50 [5]: 1.5 µM
- TGI [5]: 2.87 µM
- GI50 [6]: 2.58 µM
- TGI [6]: 6.8 µM
- GI50 [7]: 0.319 µM
- TGI [7]: 1.44 µM
- GI50 [8]: 2.45 µM
- TGI [8]: 4.72 µM
- GI50 [9]: 0.0127 µM
